Assay [1] can be described thus: Catalase activity, conversion of H2O2 to oxygen, polarographic oxygen electrode (Example 2). The format is biochemical. The settings on record: relative to C7 (C7 = 100). The method, then: Catalase activity was assayed by monitoring the conversion of H2O2 to oxygen using a Clark-type polarographic oxygen electrode. The apparatus consisted of a Mini Clark Style electrode, a 600 μl Oxygen Uptake Chamber, and a Chemical Microsensor system, all obtained from Diamond General Corporation (Ann Arbor, Mich.). The electrode was calibrated by immersion in nitrogen- or air-equilibrated buffers using a Dual Chamber Calibration Cell (Diamond General,. Corp.). Catalase reaction mixtures consisted of 50 mM sodium phosphate, pH 8.1, 0.9% sodium chloride, and salen manganese complex and H2O2 at the indicated concentrations. The temperature of the water-jacketed reaction chamber, as well as the calibration buffers, was maintained at 25±0.1° C. Data were collected at 1 sec intervals and stored-on a MacIntosh II computer using data acquisition hardware and software by Strawberry Tree, Inc. (Sunnyvale, Calif.). Dissolved oxygen concentrations were calculated as described previously (Del Rio et al. (1977) Anal. Biochem. 80: 409) based on a value of 2.5×10^−4 M oxygen for air-saturated buffer at 25° C. Linearity of the dissolved oxygen measurements within the experimental range was continued by determining the amount of oxygen generated from known quantities of H2O2 during exhaustive treatment with bovine liver catalase. Stock solutions of H2O2 were prepared by diluting a commercial 30% H2O2 solution in water and the H2O2 concentrations in these stocks were determined by absorbance at 240 nm, using a molar extinction coefficient of 44 (Stadtman, E R. et al. (1990) Proc. Natl. Acad. Sci. USA 87: 384). […] In the absence of salen manganese complex, H2O2 alone typically produced an early, relatively slow increase in signal. The slope of this increased signal was not proportional to H2O2 concentration (for example in one experiment, 1 and 10 Mm H2O2 yielded apparent rates of 12 and 14 μM oxygen per min, respectively) and may be due to an electrode artifact. […] Where presented, initial rates were calculated by determining the slope of the linear portion of time dependent plots of oxygen generation, usually comprising the first five seconds of the reaction. Unless otherwise indicated, these were corrected by subtracting the rate obtained with H2O2 alone. Where presented, endpoint oxygen generated was calculated from time-dependent plots, such as those shown in FIG. 14, as the difference between the baseline oxygen concentration immediately prior to substrate addition and the maximal oxygen concentration achieved during the course of the reaction. All reactions subjected to these calculations were run for a sufficient time to ensure that oxygen generation had ceased.
(§1) Catalase and peroxidase activities were assayed as described in Example 2. Catalase assays contained 10 μM salen-manganese complex and 10 mM hydrogen peroxide. Peroxidase assays contained 10 μM salen-manganese complex and 0.2 mM hydrogen peroxide. Glucose-glucose oxidase toxicity assays were performed using human dermal fibroblasts as described in Example 2.

Assay [2] is described as follows: Peroxidase activity, H2O2-dependent oxidation of ABTS (Example 2). The format is biochemical. The settings on record: relative to C7 (C7 = 100). The protocol:
Peroxidase activity was assayed by monitoring the hydrogen peroxide-dependent oxidation of 2,2′-azino-bis(3-ethylbenzthiazoline-6) sulfonic acid (ABTS) spectrophotometrically. Standard assay mixtures consisted of 50 mM sodium phosphate, pH 8.1, 0.9% sodium chloride, 0.5 mM ABTS, and H2O2 and salen manganese complex as indicated. Where indicated, 50 mM sodium phosphate buffers of pH 6.0 or pH 7.1 were substituted. Assays were conducted at 27±0.2° C. ABTS oxidation was monitored at 740 or 500 nm to eliminate interference by the salen manganese complexes, many of which absorb in the vicinity of the λmax of oxidized ABTS, and to avoid absorbance values that exceeded the linear range of the spectrophotometer. The amount of oxidized ABTS was estimated using an Δε740 of 20,300 M^−1cm^−1 or an Δε500 of 3400 M^−1cm^−1 calculated based upon the published molar extinction coefficient oat 405 nm (36,800).
as §1

This is an account of results in US7582786B2, “Synthetic catalytic free radical scavengers useful as antioxidants for prevention and therapy of disease” (Eukarion Inc., priority 1996, dated 2009).

SMILES strings stand for the structures.

In assay [1], `[Cl][Mn]1[O]c2ccccc2C=Nc2cccnc2N=Cc2ccccc2[O]1` [Compound C44] yielded a Catalase endpt. of 493 and a Catalase rate of 272. This compound also registered a Peroxidase in assay [2] of 48.

Turning to `COc1cccc2c1[O][Mn]([Cl])[O]c1c(cccc1OC)C=Nc1ncccc1N=C2` [Compound C46], in assay [1], the Catalase endpt. amounted to 830 and the Catalase rate is 465. In assay [2], this compound had a Peroxidase of 20.

As for `CC(=O)[O][Mn]1[O]c2ccccc2C=Nc2ccccc2N=Cc2ccccc2[O]1` [Compound C47], in assay [1], the Catalase endpt. was determined as 398 and the Catalase rate worked out at 343. In assay [2], this compound yielded a Peroxidase of 101.

Consider `COc1cccc2c1[O][Mn]([O]C(C)=O)[O]c1c(cccc1OC)C=NC1CCCCC1N=C2` (stereo not shown) [Compound C50], for which, in assay [1], the Catalase endpt. stood at 287 and the Catalase rate amounted to 174. For the same compound, in assay [2], the Peroxidase is reported as 170.

In assay [1], `CC(=O)[O][Mn]1[O]c2ccccc2C=NCC(C)(C)CN=Cc2ccccc2[O]1` [Compound C52] displayed a Catalase endpt. of 33 and a Catalase rate of 73. This compound also had a Peroxidase in assay [2] of 0.

Take `C1=NCCN=Cc2ccccc2[O][Ni][O]c2ccccc21` [Compound C59]: the Peroxidase in assay [2] was 0.

Consider `COc1cc(Br)c2c(c1)C=NCCN=Cc1cc(OC)cc(Br)c1[O][Mn]([O]C(C)=O)[O]2` [Compound C69], for which the Peroxidase in assay [2] worked out at 167.

In turn, `CC(=O)[O][Mn]1[O]c2c(F)cccc2C=Nc2cccnc2N=Cc2cccc(F)c2[O]1` [Compound C75] had a Peroxidase in assay [2] of 0.

On to `COc1cc(Br)c2c(c1)C=Nc1ccccc1N=Cc1cc(OC)cc(Br)c1[O][Mn]([O]C(C)=O)[O]2` [Compound C76], for which, in assay [1], the Catalase endpt. was 159 and the Catalase rate is 427. This compound also returned a Peroxidase in assay [2] of 23.

For the compound `CC(=O)[O][Mn]1[O]c2ccc(Cl)cc2C=Nc2cccnc2N=Cc2cc(Cl)ccc2[O]1` [Compound C77], the Peroxidase in assay [2] was determined as 0.

In assay [1], `CC(=O)[O][Mn]1[O]c2ccc3ccccc3c2C=Nc2ccccc2N=Cc2c(ccc3ccccc23)[O]1` [Compound C79] yielded a Catalase endpt. of 22 and a Catalase rate of 42. In assay [2], this compound registered a Peroxidase of 0.

Regarding `COc1cccc2c1[O][Mn]([O]C(C)=O)[O]c1c(cccc1OC)C=NCCCN=C2` [Compound C80], in assay [1], the Catalase endpt. came out at 24 and the Catalase rate is reported as 34. Moreover, in assay [2], the Peroxidase is reported as 0.

Take `COc1cccc2c1[O][Mn]([Cl])[O]c1c(cccc1OC)C=Nc1ccccc1N=C2` [Compound C81]: in assay [1], the Catalase endpt. is on record as 870 and the Catalase rate is given as 493. The compound further displayed a Peroxidase in assay [2] of 83.

In assay [1], `CC(=O)[O][Mn]1[O]c2c3cccc2OCCOCCOCCOc2cccc(c2[O]1)C=Nc1ccccc1N=C3` [Compound C82] showed a Catalase endpt. of 756 and a Catalase rate of 345. The Peroxidase in assay [2] was 59.

In assay [1], `CC(=O)[O][Mn]1[O]c2ccccc2CNCCNCc2ccccc2[O]1` [Compound C83] yielded a Catalase endpt. of 52 and a Catalase rate of 42. The Peroxidase in assay [2] was determined as 74.

On to `[Cl][Mn]1[O]c2ccccc2CNCCNCc2ccccc2[O]1` [Compound C84], for which, in assay [1], the Catalase endpt. is on record as 51 and the Catalase rate is 31. Moreover, the Peroxidase in assay [2] is 77.

As for `COc1ccc2c(c1)C(C)=NCCN=C(C)c1cc(OC)ccc1[O][Mn]([O]C(C)=O)[O]2` [Compound C87], in assay [2], the Peroxidase turned out to be 20.

`COc1ccc2c(c1)[O][Mn]([O]C(C)=O)[O]c1cc(OC)ccc1C(C)=NCCN=C2C` [Compound C88]: in assay [2], the Peroxidase was found to be 0.

In assay [2], `COc1ccc2c(c1)[O][Mn]([O]C(C)=O)[O]c1cc(OC)ccc1C(c1ccccc1)=NCCN=C2c1ccccc1` [Compound C89] had a Peroxidase of 0.
